Laboratory results from patent US20250205207A1, “MATRIX TABLETS OF DEXPRAMIPEXOLE AND METHODS OF MANUFACTURING AND USE THEREOF” (Areteia Therapeutics, Inc., priority 2023, published 2025).

How the values were obtained:
[1] = during tablet manufacture and storage
[2] = across the physiological pH range; cited from earlier work
dopamine receptors = conditions: compared to pramipexole; cited from earlier work
[3] = system: eosinophil counts in human blood and tissues; conditions: cited from earlier work

| Compound | chiral purity over time [1] | solubility [2] | affinity for dopamine receptors (dopamine receptors) | effect on eosinophil counts [3] |
| --- | --- | --- | --- | --- |
| CCCN[C@@H]1CCc2nc(N)sc2C1 | did not change over time | freely soluble |  |  |
| CCCN[C@@H]1CCc2nc(N)sc2C1 [dexpramipexole, (6R)-2-amino-4,5,6,7-tetrahydro-6-(propylamino)benzothiazole] |  |  | greatly reduced when compared to pramipexole | selectively and significantly lower eosinophil counts |
